# Source: US6495585B2, “Method for treating hyperproliferative tissue in a mammal” (Health Research, Inc., priority 2001, dated 2002)
# Key:
# Colon 38 tumors = settings: compared with FAA; cited from earlier work
# TNF-α = settings: cited from earlier work
# [1] = system: cultured human and murine cells; settings: cited from earlier work
# RIF-1 tumors = system: RIF-1 tumors
# Procedure: The drawings illustrate the responses of RIF-1 tumors to either PDT (FIG. 2a) or DMXAA (FIG. 2b). Dose response data are shown in the form of Kaplan-Meier ‘survival’ plots, where the percent of RIF-1 tumors with volumes less than […] are plotted against time from treatment. Tumor volumes at the time of treatment were 50-70 mg (approximately […] of the mouse body mass).
# In pilot studies of PDT plus adjuvant DMXAA only low doses of each modality were chosen. […] 23 hours, 20 mg DMXAA/kg. 2 hours, 135 J/cm^263-nm laser light. Control tumors (no drug, no light) are shown as solid black squares; DMXAA are shown as open circles; PDT alone as gray circles.
# The symbols in the graph are the same as for FIG. 3.
# implanted murine tumors = settings: compared with FAA; cited from earlier work
# tumor cell lines = settings: cited from earlier work
# tumor blood flow = settings: in vivo; cited from earlier work
# [2] = system: natural killer cell activity; settings: spleen and other tissues; cited from earlier work
smiles,measurement,setting,value
"O=C(O)Cc1cccc2c(=O)c3ccccc3oc12 [XAA, Xanthenone-4-acetic acid]",efficiency in eliminating Colon 38 tumors,Colon 38 tumors,more efficient than FAA
"Cc1ccc2c(=O)c3cccc(CC(=O)O)c3oc2c1C [DMXAA, 5,6-Dimethylxanthenone-4-acetic acid]",cytokine induction,TNF-α,induce TNF-α along with IFN-γ
same,in vitro activity,[1],active in vitro
same,tumor control (percent of RIF-1 tumors with volumes less than 400 mm vs time from treatment),"RIF-1 tumors; administered alone, Kaplan-Meier plots, FIG. 2a/2b",control tumors in a dose-dependent manner
same,toxicity of most effective doses,"RIF-1 tumors; mouse, in vivo",most effective doses are at or near the treatment toxic limits
same,dose potency against implanted murine tumors,implanted murine tumors,considerably greater dose potencies than FAA
"O=C(O)Cc1cccc2c(=O)cc(-c3ccccc3)oc12 [FAA, Flavone-8-acetic acid]",in vitro activity against tumor cell lines,tumor cell lines,shows in vitro activity against a number of tumor cell lines
same,effect on tumor blood flow,tumor blood flow,causes reduction in tumor blood flow
same,natural killer cell activity,[2],induces natural killer cell activity
